The values that follow come from patent publication US9296723B2, “NAMPT inhibitors” (AbbVie Inc., priority 2012, dated 2016).

Assay [1] has as its target T1, NAMPT (Homo sapiens, UniProt P43490). Nature of the assay: Time-Resolved Fluorescence Resonance Energy Transfer (TR-FRET) Binding Assay of NAMPT. The settings on record: 6.8 nM NAMPT, 200 nM probe, equilibrated 3 hours, no substrates. A digest of the protocol:
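IC50s come from four-parameter logistic fits of control-normalized Em520/Em495 TR-FRET ratios (Ex 337 nm) against compound concentration. Before reading, enzyme, probe, antibody and compound equilibrated for 3 h at room temperature.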
For orientation: In TR-FRET formats the signal depends on donor and acceptor labels being close together.

Assay [2] concerns the target T1, NAMPT. Description: TR-FRET Binding Assay of NAMPT with PRPP. The settings on record: 2 nM NAMPT, 2 nM probe, 200 µM PRPP and 2.5 mM ATP, equilibrated 16 hours. A digest of the protocol: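 Substrates present: PRPP at 200 µM and ATP at 2.5 mM, final, alongside 2 nM enzyme, 2 nM tracer and 1 nM terbium anti-His donor in 2% DMSO. A 16-hour equilibration preceded the time-resolved FRET read, allowing compounds to be enzymatically modified.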

The next assay relates to PC3 cells. Nature of the assay: NAMPT Cell Proliferation Assay (Cell Titer Glo). The format is cell-based. The settings on record: Homo sapiens, PC-3, 120 h, incubated 5 days, cell viability. A digest of the protocol:
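Viability measured by Cell Titer Glo luminescence after 5-day exposure of attached PC3 cells to compound, dosed as 10-fold serial dilutions ([…]) in RPMI/10% FBS at 37 °C and 5% CO2. Percent inhibition fitted to sigmoidal dose-response curves for IC50.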
(Cellular ATP, detected with luciferase, serves as a proxy for viable cell number.)

T1 sequence (P43490 whole entry): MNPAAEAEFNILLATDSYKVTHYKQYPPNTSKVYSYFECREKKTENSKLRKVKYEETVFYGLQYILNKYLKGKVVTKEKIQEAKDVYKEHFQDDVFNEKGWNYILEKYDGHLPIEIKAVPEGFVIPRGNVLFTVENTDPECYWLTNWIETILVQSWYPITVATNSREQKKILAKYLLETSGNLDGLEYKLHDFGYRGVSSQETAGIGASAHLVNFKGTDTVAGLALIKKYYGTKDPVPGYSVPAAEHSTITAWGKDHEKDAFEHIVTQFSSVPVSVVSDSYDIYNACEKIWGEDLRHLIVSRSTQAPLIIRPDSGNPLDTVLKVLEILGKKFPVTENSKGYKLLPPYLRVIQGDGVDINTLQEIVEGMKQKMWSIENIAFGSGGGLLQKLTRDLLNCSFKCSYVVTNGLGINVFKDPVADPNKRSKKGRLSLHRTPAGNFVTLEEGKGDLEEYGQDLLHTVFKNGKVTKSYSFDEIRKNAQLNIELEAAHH

Consider `O=C(Nc1ccc(C2CCN(C(=O)c3ccoc3)C2)cc1)N1CC(c2cccnc2)C1` (stereo not drawn) [Example 264, N-{4-[1-(furan-3-ylcarbonyl)pyrrolidin-3-yl]phenyl}-3-(pyridin-3-yl)azetidine-1-carboxamide], for which the IC50 – broadly, the midpoint of a concentration-inhibition curve – at NAMPT [1] worked out at 40.9 nM; on NAMPT [2], 0.188 nM; with PC3 cells, 35.1 nM.

On to `CC(C)C(=O)N1CC(Oc2ccc(NC(=O)N3CC(c4cccnc4)C3)cc2)C1` [Example 127, N-(4-{[1-(2-methylpropanoyl)azetidin-3-yl]oxy}phenyl)-3-(pyridin-3-yl)azetidine-1-carboxamide], for which the half-maximal inhibitory concentration (IC50) at NAMPT [1] was 93.4 nM; at NAMPT [2], 0.603 nM; in the assay on PC3 cells, 71 nM.

In the case of `CC(C)(C)CC(=O)N1CC[C@@H](Oc2ccc(NC(=O)N3CC(c4cccnc4)C3)cc2)C1` [Example 329, N-(4-{[(3R)-1-(3,3-dimethylbutanoyl)pyrrolidin-3-yl]oxy}phenyl)-3-(pyridin-3-yl)azetidine-1-carboxamide], the IC50 on NAMPT [1] was 30.4 nM; on NAMPT [2] it was 0.276 nM; with PC3 cells, 14.5 nM.

On to `CC(C)C(=O)N1CC=C(c2ccc(NC(=O)N3CC(c4cccnc4)C3)cc2)CC1` [Example 27, N-{4-[1-(2-methylpropanoyl)-1,2,3,6-tetrahydropyridin-4-yl]phenyl}-3-(pyridin-3-yl)azetidine-1-carboxamide], for which the IC50 on NAMPT [1] came out at 13 nM; on NAMPT [2], 0.243 nM; in the assay on PC3 cells, 9.2 nM.

As to `O=C(Nc1ccc(C2CCN(C(=O)C3CCCCC3)C2)cc1)N1CC(c2cccnc2)C1` (stereo not drawn) [Example 293, N-{4-[1-(cyclohexylcarbonyl)pyrrolidin-3-yl]phenyl}-3-(pyridin-3-yl)azetidine-1-carboxamide], the IC50 on NAMPT [1] was 56.6 nM; at NAMPT [2], 0.21 nM; with PC3 cells it was 70.5 nM.

On to `CC1(C(=O)N2CCC(c3ccc(NC(=O)N4CC(c5cccnc5)C4)cc3)C2)CCCCC1` (stereo not drawn) [Example 276, N-(4-{1-[(1-methylcyclohexyl)carbonyl]pyrrolidin-3-yl}phenyl)-3-(pyridin-3-yl)azetidine-1-carboxamide], for which the IC50 on NAMPT [1] was 12.4 nM; on NAMPT [2], 0.347 nM; with PC3 cells it was 10 nM.

With `CC1(C(=O)N2CC(Oc3ccc(NC(=O)N4CC(c5cccnc5)C4)cc3)C2)CCCCC1` [Example 152, N-[4-({1-[(1-methylcyclohexyl)carbonyl]azetidin-3-yl}oxy)phenyl]-3-(pyridin-3-yl)azetidine-1-carboxamide], the IC50 at NAMPT [1] came out at 5.18 nM; at NAMPT [2], 0.42 nM; in the assay with PC3 cells, 6.04 nM.

As for `CC(C)(C)C(=O)N1CCC(c2ccc(NC(=O)N3CC(c4cccnc4)C3)cc2)C1` (stereo not drawn) [Example 282, N-{4-[1-(2,2-dimethylpropanoyl)pyrrolidin-3-yl]phenyl}-3-(pyridin-3-yl)azetidine-1-carboxamide], the half-inhibitory concentration (IC50) stood at 26.6 nM on NAMPT [1], 0.219 nM at NAMPT [2] and 14.3 nM in the assay on PC3 cells.

For `O=C(CC(F)(F)F)N1CC=C(c2ccc(NC(=O)N3CC(c4cccnc4)C3)cc2)CC1` [Example 18, 3-(pyridin-3-yl)-N-{4-[1-(3,3,3-trifluoropropanoyl)-1,2,3,6-tetrahydropyridin-4-yl]phenyl}azetidine-1-carboxamide], the concentration for half-maximal inhibition (IC50) on NAMPT [1] worked out at 36.7 nM; on NAMPT [2], 0.294 nM; in the assay on PC3 cells it was 65.8 nM.

On to `CC(C)(C)OC(=O)N1CC[C@H](Oc2ccc(NC(=O)N3CC(c4cccnc4)C3)cc2)C1` [Example 61, tert-butyl (3S)-3-[4-({[3-(pyridin-3-yl)azetidin-1-yl]carbonyl}amino)phenoxy]pyrrolidine-1-carboxylate], for which the IC50 at NAMPT [1] stood at 20.9 nM; on NAMPT [2], 0.31 nM; with PC3 cells, 30.7 nM.

For the compound `O=C(CCC(F)(F)F)N1CC=C(c2ccc(NC(=O)N3CC(c4cccnc4)C3)cc2)CC1` [Example 19, 3-(pyridin-3-yl)-N-{4-[1-(4,4,4-trifluorobutanoyl)-1,2,3,6-tetrahydropyridin-4-yl]phenyl}azetidine-1-carboxamide], the IC50 amounted to 153 nM on NAMPT [1], 0.86 nM at NAMPT [2] and 192 nM in the assay with PC3 cells.
